The NIST ThermoML archive (doi:10.1021/je401120a)

Test: xn = mol fraction of the nth substance listed
Conditions: 101 kPa, Liquid; for electrical conductivity: Crison conductimeter (model GLP31); for speed of sound: Pulse-echo method; for mass density: Vibrating tube method

CCC[n+]1ccccc1.F[B-](F)(F)F [1-propylpyridinium tetrafluoroborate] + CO
Conditions	electrical conductivity [S/m]	mass density [kg/m3]	speed of sound [m/s]	viscosity [mPa·s]
313.15 K, x1 = 0.028	–	829.037	1104.3	–
313.15 K, x1 = 0.0313	3.41	–	–	–
313.15 K, x1 = 0.0365	3.77	–	–	–
313.15 K, x1 = 0.0422	4.13	–	–	–
313.15 K, x1 = 0.0505	–	–	–	0.7578
313.15 K, x1 = 0.0577	–	876.892	1151.5	–
313.15 K, x1 = 0.0658	4.95	–	–	–
313.15 K, x1 = 0.0775	5.27	–	–	–
313.15 K, x1 = 0.0894	5.59	–	–	–
313.15 K, x1 = 0.0967	–	927.831	1204.8	–
313.15 K, x1 = 0.0993	–	–	–	1.273
313.15 K, x1 = 0.1294	6.03	–	–	–
313.15 K, x1 = 0.1409	6.12	–	–	–
313.15 K, x1 = 0.1459	–	979.474	1261.3	–
313.15 K, x1 = 0.1703	6.3	–	–	–
313.15 K, x1 = 0.191	–	–	–	2.523
313.15 K, x1 = 0.1952	–	1020.19	1314.3	–
313.15 K, x1 = 0.2002	6.26	–	–	–
313.15 K, x1 = 0.2456	6.05	–	–	–
313.15 K, x1 = 0.2819	5.68	–	–	–
313.15 K, x1 = 0.291	–	–	–	4.303
313.15 K, x1 = 0.3213	–	1094.6	1409.3	–
313.15 K, x1 = 0.3507	5.15	–	–	–
313.15 K, x1 = 0.3918	–	–	–	6.052
313.15 K, x1 = 0.3937	4.76	–	–	–
313.15 K, x1 = 0.4002	–	1127.34	1453.2	–
313.15 K, x1 = 0.4334	4.32	–	–	–
313.15 K, x1 = 0.464	3.91	–	–	–
313.15 K, x1 = 0.4929	–	–	–	8.501
313.15 K, x1 = 0.4965	–	1157.84	1492.7	–
313.15 K, x1 = 0.5398	3.26	–	–	–
313.15 K, x1 = 0.5988	–	1183.22	1527.3	–
313.15 K, x1 = 0.6117	–	–	–	12.48
313.15 K, x1 = 0.635	2.5	–	–	–
313.15 K, x1 = 0.6904	–	1201.32	1550.3	–
313.15 K, x1 = 0.7331	–	–	–	20
313.15 K, x1 = 0.7918	1.5	–	–	–
313.15 K, x1 = 0.7923	–	–	–	25.3
313.15 K, x1 = 0.8011	–	1218.9	1573.6	–
313.15 K, x1 = 0.8425	–	–	–	31.76
313.15 K, x1 = 0.8824	–	1229.83	1589.4	–
313.15 K, x1 = 0.894	1.05	–	–	–
313.15 K, x1 = 0.8956	–	–	–	38.87
313.15 K, x1 = 0.9384	0.94	–	–	–
313.15 K, x1 = 0.94	–	1236.33	1598.5	–
313.15 K, x1 = 0.9447	–	–	–	46.64
313.15 K, x1 = 1	0.799	1242.43	1606.3	56.02
323.15 K, x1 = 0.028	–	820.035	1073.8	–
323.15 K, x1 = 0.0313	3.87	–	–	–
323.15 K, x1 = 0.0365	4.25	–	–	–
323.15 K, x1 = 0.0422	4.68	–	–	–
323.15 K, x1 = 0.0505	–	–	–	0.673
323.15 K, x1 = 0.0577	–	867.868	1123.5	–
323.15 K, x1 = 0.0658	5.62	–	–	–
323.15 K, x1 = 0.0775	6	–	–	–
323.15 K, x1 = 0.0894	6.37	–	–	–
323.15 K, x1 = 0.0967	–	918.92	1178.7	–
323.15 K, x1 = 0.0993	–	–	–	1.009
323.15 K, x1 = 0.1294	6.98	–	–	–
323.15 K, x1 = 0.1409	7.05	–	–	–
323.15 K, x1 = 0.1459	–	970.736	1237	–
323.15 K, x1 = 0.1703	7.23	–	–	–
323.15 K, x1 = 0.191	–	–	–	1.915
323.15 K, x1 = 0.1952	–	1011.68	1291	–
323.15 K, x1 = 0.2002	7.2	–	–	–
323.15 K, x1 = 0.2456	7	–	–	–
323.15 K, x1 = 0.2819	6.64	–	–	–
323.15 K, x1 = 0.291	–	–	–	3.255
323.15 K, x1 = 0.3213	–	1086.6	1385.4	–
323.15 K, x1 = 0.3507	6.05	–	–	–
323.15 K, x1 = 0.3918	–	–	–	4.475
323.15 K, x1 = 0.3937	5.63	–	–	–
323.15 K, x1 = 0.4002	–	1119.59	1429.5	–
323.15 K, x1 = 0.4334	5.12	–	–	–
323.15 K, x1 = 0.464	4.78	–	–	–
323.15 K, x1 = 0.4929	–	–	–	6.13
323.15 K, x1 = 0.4965	–	1150.3	1467.3	–
323.15 K, x1 = 0.5398	3.97	–	–	–
323.15 K, x1 = 0.5988	–	1175.76	1503.9	–
323.15 K, x1 = 0.6117	–	–	–	8.91
323.15 K, x1 = 0.635	3.15	–	–	–
323.15 K, x1 = 0.6904	–	1193.84	1527.1	–
323.15 K, x1 = 0.7331	–	–	–	14.27
323.15 K, x1 = 0.7918	1.96	–	–	–
323.15 K, x1 = 0.7923	–	–	–	18.12
323.15 K, x1 = 0.8011	–	1211.54	1550.5	–
323.15 K, x1 = 0.8425	–	–	–	22.39
323.15 K, x1 = 0.8824	–	1222.55	1566.5	–
323.15 K, x1 = 0.894	1.48	–	–	–
323.15 K, x1 = 0.8956	–	–	–	26.94
323.15 K, x1 = 0.9384	1.34	–	–	–
323.15 K, x1 = 0.94	–	1229.15	1575	–
323.15 K, x1 = 0.9447	–	–	–	31.72
323.15 K, x1 = 1	1.15	1235.31	1583.3	36.99
